Numbers after ± are expanded uncertainties.
Experiments:
[1] = refractive index (Na D-line) (dimensionless); details: 101.3 kPa, Liquid, Standard Abbe refractometry
[2] = 101.3 kPa, Liquid; for speed of sound: Frequency=3 MHz, Single path-length method; for mass density: Vibrating tube method
[3] = xn = mol fraction of the nth substance listed; details: 101.3 kPa, Liquid, x2 = 0; for speed of sound: Frequency=3 MHz, Single path-length method; for mass density: Vibrating tube method
[4] = refractive index (Na D-line) (dimensionless); xn = mol fraction of the nth substance listed; details: 101.3 kPa, Liquid, Standard Abbe refractometry, x2 = 0

| SMILES | refractive index ([1]; 303.15 K) | refractive index ([1]; 308.15 K) | refractive index ([1]; 313.15 K) | refractive index ([1]; 318.15 K) | refractive index ([1]; 323.15 K) | speed of sound ([2]; 303.15 K) [m/s] | mass density ([2]; 303.15 K) [kg/m3] | speed of sound ([2]; 308.15 K) [m/s] | mass density ([2]; 308.15 K) [kg/m3] | speed of sound ([2]; 313.15 K) [m/s] | mass density ([2]; 313.15 K) [kg/m3] | speed of sound ([2]; 318.15 K) [m/s] | mass density ([2]; 318.15 K) [kg/m3] | speed of sound ([2]; 323.15 K) [m/s] | mass density ([2]; 323.15 K) [kg/m3] | other results |
| --- | --- | --- | --- | --- | --- | --- | --- | --- | --- | --- | --- | --- | --- | --- | --- | --- |
| CCCC[n+]1ccn(C)c1.O=S(=O)([N-]S(=O)(=O)C(F)(F)F)C(F)(F)F | 1.4245 ± 0.0011 | 1.4231 ± 0.0011 | 1.421 ± 0.0011 | 1.4195 ± 0.0011 | 1.4173 ± 0.0011 | 1216.8 ± 1.4 | 1428.9 ± 2.1 | 1205.8 ± 1.4 | 1424.1 ± 2.1 | 1195 ± 1.4 | 1419.4 ± 2.1 | 1184.2 ± 1.4 | 1414.6 ± 2.1 | 1173.6 ± 1.4 | 1409.9 ± 2.1 |  |
| COC(=O)OC [dimethyl carbonate] | 1.3648 ± 0.001 | 1.3629 ± 0.001 | 1.3626 ± 0.001 | 1.3601 ± 0.001 | 1.3586 ± 0.001 | 1177.3 ± 1.1 | 1056.8 ± 2 | 1155.6 ± 1.1 | 1050.2 ± 2 | 1134.2 ± 1.1 | 1043.5 ± 2 | 1113.1 ± 1.1 | 1036.8 ± 2 | 1092.2 ± 1.1 | 1030 ± 2 |  |
| COC(=O)OC [dimethyl carbonate] + CCCC[n+]1ccn(C)c1.O=S(=O)([N-]S(=O)(=O)C(F)(F)F)C(F)(F)F |  |  |  |  |  |  |  |  |  |  |  |  |  |  |  | speed of sound ([3]; 303.15 K): 1177.3 ± 1.1 m/s; mass density ([3]; 303.15 K): 1056.8 ± 2 kg/m3; speed of sound ([3]; 308.15 K): 1155.6 ± 1.1 m/s; mass density ([3]; 308.15 K): 1050.2 ± 2 kg/m3; speed of sound ([3]; 313.15 K): 1134.2 ± 1.1 m/s; mass density ([3]; 313.15 K): 1043.5 ± 2 kg/m3; speed of sound ([3]; 318.15 K): 1113.1 ± 1.1 m/s; mass density ([3]; 318.15 K): 1036.8 ± 2 kg/m3; speed of sound ([3]; 323.15 K): 1092.2 ± 1.1 m/s; mass density ([3]; 323.15 K): 1030 ± 2 kg/m3; refractive index ([4]; 303.15 K): 1.3648 ± 0.001; refractive index ([4]; 308.15 K): 1.3629 ± 0.001; refractive index ([4]; 313.15 K): 1.3626 ± 0.001; refractive index ([4]; 318.15 K): 1.3601 ± 0.001; refractive index ([4]; 323.15 K): 1.3586 ± 0.001 |
